Data set [1] has as its system dopamine receptors. The experiment in a line: Test 3 Inhibition of p-chloroamphetamine hyperactivity. Type of data set: in vivo, mice. The settings on record: for ED50, inhibition of pCA induced hyperactivity: Table 2, mice. The method, then: Test 3 Inhibition of p-chloroamphetamine hyperactivity
C=mean activity of control groups 10-30 minutes post pCA.
T=mean activity of treated groups 10-30 minutes post pCA.
This test is used as an in vivo screen for detection of 5-hydroxytryptamineuptake inhibitors.

Data set [2] in a line: Test 5 Increase in Fall Rate From Revolving Drum (ability to induce extrapyramidal effects). The settings on record: for TD50 at 1 h: mouse, in vivo, po, mice, one hour after dosing, dose inducing fall rate half of maximum theoretically possible, read-out: ED50, increase in fall rate from revolving drum. Type of data set: in vivo, mice. The procedure:
Test 5 Increase in Fall Rate From Revolving Drum
Groups of 8 mice were trained to walk on a slowly revolving horizontal drum prior to dosing with various concentrations of the test drugs or vehicle. An hour later the mice were replaced on the drum and the number of times each animal fell during the following 3 minutes was noted (mice were replaced immediately after each fall). […] The doses shown are those calculated to induce a fall rate half that of the maximum theoretically possible.

The subject of data set [3] is dopamine receptors. The experiment in a line: Test 1 Inhibition of Amphetamine Induced Stereotypy. Particulars: for ED50, inhibition of amphetamine induced stereotypy: rats. The class given is in vivo, rats. From the text: Test 1 Inhibition of Amphetamine Induced Stereotypy
Data set [4] has as its system dopamine receptors. The experiment in a line: Test 2 Inhibition of Apomorphine Induced Climbing. Type of data set: in vivo, mice. The settings on record: Table I; for ED50, inhibition of apomorphine induced climbing: mice, compound one hour before 10 mg/kg apomorphine, dose reducing climbing score by 50%.
Data set [5] in a line: Test 4 Increase in Halothane Induced Sleep Time (sedative potential). The class given is in vivo, mice. Particulars: for ED50, increase in halothane induced sleep time: mice, one hour before 3% halothane, dose increasing duration of loss of righting reflex by 50%. The procedure: Test 4 Increase in Halothane Induced Sleep Time
Groups of 6 mice received the test compounds or the requisite volume of vehicle p.o. one hour before being placed in a perspex container. A gas mixture containing 3% halothane in oxygen was passed through this container for 5 minutes. Next the mice were removed and placed on their backs and the latency to the restoration of the righting reflex noted.
The doses shown are those calculated to increase the duration of halothane induced loss of righting reflex by 50%.

The subject of data set [6] is dopamine receptors. The experiment in a line: Dopamine antagonism, overall statement on Tests 1, 2 and 3. Particulars: for antagonist activity at dopaminergic reception (in words): results of Table 2, Tests 1 and 3, 50 mg/kg for Examples 6 and 7.
The mark [7] stands for this setting: Table I, compound one hour before 5 mg/kg d-amphetamine.

The structures appear in SMILES notation.

Regarding `OC1(c2ccc(Cl)cc2)CCN(Cc2c[nH]c3ccccc23)CC1` [Example 1, 1-(Indol-3-ylmethyl)-4-hydroxy-4-(p-chlorophenyl)piperidine], the “ED50, inhibition of pCA induced hyperactivity” value with dopamine receptors [1] (20 mg/kg pCA ip) turned out to be 10 mg/kg p.o. In addition, in the data set on dopamine receptors [1] (Table I, ratio to haloperidol), the “A/B (ED50 Example 1 / ED50 Haloperidol), p-chloro amphetamine hyperactivity” value is 33. In addition, the “A/B (ED50 Example 1 / ED50 Haloperidol), fall rate from revolving drum” value in data set [2] (Table I, ratio to haloperidol) turned out to be 56. Moreover, the TD50 at 1 h in data set [2] (Table I) stood at 50 mg/kg. Besides, in data set [2] (versus haloperidol), the “unwanted extrapyramidal effects compared with haloperidol (in words)” value was “exhibits an advantage with regard to unwanted extrapyramidal effects”. The “ED50, inhibition of amphetamine induced stereotypy” value with dopamine receptors [3] (Table 2, 5 mg/kg d-amphetamine) turned out to be 25 mg/kg p.o; in the data set with dopamine receptors [3] (setting [7]), 25 mg/kg p.o. Moreover, the “A/B (ED50 Example 1 / ED50 Haloperidol), amphetamine induced stereotypy” value with dopamine receptors [3] (Table I, ratio to haloperidol) came out at 36. In addition, the “ED50, inhibition of apomorphine induced climbing” value with dopamine receptors [4] is given as 20 mg/kg p.o. Moreover, in the data set with dopamine receptors [4] (ratio to haloperidol), the “A/B (ED50 Example 1 / ED50 Haloperidol), apomorphine induced climbing” value is recorded as 40. Further, the “ED50, increase in halothane induced sleep time” value in data set [5] (Table I) was 200 mg/kg p.o. The “A/B (ED50 Example 1 / ED50 Haloperidol), halothane induced sleep time” value in data set [5] (Table I, ratio to haloperidol) is reported as 1000. Moreover, the selectivity ratio in data set [5] (mouse, in vivo, po, ratio of Test 4 dose to doses in Tests 1-3, read-out: dose prolonging halothane-induced sleep relative to doses required to inhibit dopaminergic responses) was in the range of 8 to 20. In addition, the “sedative potential compared with haloperidol (in words)” value in data set [5] (versus haloperidol) is “lower than that of haloperidol”. The “dopamine antagonist potency compared with haloperidol (in words)” value with dopamine receptors [6] (Tests 1, 2 and 3, versus haloperidol) was “less potent dopamine antagonist than haloperidol”. Besides, in the data set with dopamine receptors [6], the “antagonist activity at dopaminergic reception (in words)” value (“antagonist activity” below) is given as “both show activity”. For the same compound, in the data set with dopamine receptors [6] (results of Table 2, Example 1 versus Example 2), the “relative potency of Examples 1 and 2 (in words)” value is reported as “the more potent”.

In the case of `OC1(c2ccc(Cl)cc2)CCN(CCc2c[nH]c3ccccc23)CC1` [Example 7, 1-(2-(Indol-3-yl)ethyl)-4-(p-chlorophenyl)-4-hydroxypiperidine, reference compound], the “ED50, inhibition of pCA induced hyperactivity” value with dopamine receptors [1] (20 mg/kg pCA ip) is recorded as above 50 mg/kg p.o. For the same compound, the “ED50, inhibition of amphetamine induced stereotypy” value in the data set with dopamine receptors [3] (Table 2, 5 mg/kg d-amphetamine) was above 50 mg/kg p.o. Besides, the “antagonist activity” value in the data set on dopamine receptors [6] was “neither of the compounds of Examples 6 and 7 posses significant antagonist activity”.

Turning to `OC1(c2ccccc2)CCN(CCc2c[nH]c3ccccc23)CC1` [Example 6, 1-(2-(Indol-3-yl)ethyl)-4-hydroxy-4-phenylpiperidine, reference compound], the “ED50, inhibition of pCA induced hyperactivity” value with dopamine receptors [1] (20 mg/kg pCA ip) is above 50 mg/kg p.o. Besides, the “ED50, inhibition of amphetamine induced stereotypy” value with dopamine receptors [3] (Table 2, 5 mg/kg d-amphetamine) is above 50 mg/kg p.o. Besides, the “antagonist activity” value in the data set on dopamine receptors [6] is “neither of the compounds of Examples 6 and 7 posses significant antagonist activity”.

For `O=C(CCCN1CCC(O)(c2ccc(Cl)cc2)CC1)c1ccc(F)cc1` [Haloperidol, haloperidol, reference compound], the “ED50, inhibition of p-chloro amphetamine hyperactivity” value in the data set on dopamine receptors [1] (Table I, female mice, 20 mg/kg pCA ip, activity 10-30 minutes post pCA) is listed as 0.3 mg/kg p.o. In addition, the TD50 at 1 h in data set [2] (Table I) was determined as 0.9 mg/kg. Moreover, the “ED50, inhibition of amphetamine induced stereotypy” value with dopamine receptors [3] (setting [7]) turned out to be 0.7 mg/kg p.o. For the same compound, the “ED50, inhibition of apomorphine induced climbing” value with dopamine receptors [4] amounted to 0.5 mg/kg p.o. Also, the “ED50, increase in halothane induced sleep time” value in data set [5] (Table I) was determined as 0.2 mg/kg p.o. In addition, the “dose prolonging halothane-induced sleep compared with doses inhibiting dopaminergic responses (in words)” value in data set [5] (Test 4 versus Tests 1-3) is recorded as “prolongs halothane-induced sleep at doses lower than those required to ihibit dopaminergic responses”.

On to `OC1(c2ccccc2)CCN(Cc2c[nH]c3ccccc23)CC1` [Example 2, 1-(Indol-3-ylmethyl)-4-hydroxy-4-phenylpiperidine], for which the “ED50, inhibition of pCA induced hyperactivity” value in the data set on dopamine receptors [1] (20 mg/kg pCA ip) was determined as 32.6 mg/kg p.o. Moreover, the “antagonist activity” value in the data set on dopamine receptors [6] was “both show activity”.

Values taken from patent publication US4358456A, “Antipsychotic piperidinomethyl-indole derivatives” (John Wyeth & Brother Limited, priority 1980, dated 1982).
